Results reported in PMC11662004 (Communications Chemistry, 2024).

Tested on: TET2CDΔLCI
Assay: Continuous reaction monitoring (1H NMR), 2OG decarboxylation
Format: biochemical, human
Details: Supp Fig 10 a
Protocol: Double-stranded DNA oligomers were added at a final concentration of 20 µM. Data plotted from two independent replicates (n = 2). Initial rates reported as the mean of two independent replicates (n = 2). TEXT PRINTED IN THE PICTURE: (c) No DNA: V0 (μM min^−1) NgTet1: 0.36; V0 (μM min^−1) TET2: 1.28; Relative V0 NgTet1: 1; Relative V0 TET2: 1 | (c) ^5HC DNA: V0 (μM min^−1) NgTet1: 1.30; V0 (μM min^−1) TET2: 6.34; Relative V0 NgTet1: 3.6; Relative V0 TET2: 5.0 | (c) AT DNA: V0 (μM min^−1) NgTet1: 0.82; V0 (μM min^−1) TET2: 5.78; Relative V0 NgTet1: 2.3; Relative V0 TET2: 4.5 | (c) ^5mC DNA: V0 (μM min^−1) NgTet1: 1.52; V0 (μM min^−1) TET2: 6.79; Relative V0 NgTet1: 4.2; Relative V0 TET2: 5.3
All ^1H NMR spectra were recorded at 25 °C using D2O as a reference for internal deuterium lock on a Bruker Avance III 700 MHz equipped with an inverse TCI cryoprobe in 3 or 5 mm diameter tubes with a total sample volume of 160 or 565 μL, respectively. The water signal was reduced using Perfect Echo excitation sculpting suppression. Chemical shifts are reported in ppm relative to D2O (δH = 4.70 ppm).
Spectrometer settings were determined using a control sample containing all reaction components excluding enzyme. TET enzyme was added to an identical sample, and the resulting assay mixture was transferred to an NMR tube before deposition into the instrument. […] Data acquisition was started following a brief spectrometer setting optimisation (up to 200 s delay between enzyme addition and data acquisition); 8–32 scans were accumulated for a single spectrum, corresponding to 65–179 s of acquisition time. Spectrum recordings were carried out consecutively without delay. Data were processed using automated routines on MestReNova v14.2.0; signals of interest were integrated with absolute intensity scaling. ^1H NMR time courses reported in figures are representative results from two or three independent replicates.

With “5HC DNA: non-methylated DNA of the same sequence, 5'-ACC ACC GGT GGT-3', non-substrate (DNA ACCACCGGTGGT; DNA, backbone not given here)” the succinate (Time 0 min) was 2.2 µM, the succinate (Time 2.5 min) was 3.9 µM and the succinate (Time 5 min) was 6.5 µM. The succinate (Time 7.5 min) was 9.5 µM, the succinate (Time 10 min) was 12.4 µM and the succinate (Time 15 min) was 17.3 µM. It also gave a succinate (Time 20 min) of 21.5 µM.
